From PubChem BioAssay AID1996 come the findings set out here.

Converted amounts (≈) assume the structure as drawn.

For the data set the following is noted: buffer; pH 7.4; 200.0 µM.
By solubility (kinetic) is commonly meant solubility judged after dilution from a stock solution rather than from solid. As for `Cc1cc2ncc(-c3ccccc3)nc2cc1C`, the solubility (kinetic) is below 0.3 µg/mL.
The same measure for `O=S(=O)(NCCC1CC1(Cl)Cl)c1ccccc1` (centres undefined): 39.8 µg/mL (≈ 135 µM).
In the case of `O=C(CNC(=O)c1ccccc1F)c1ccccc1`, the kinetic solubility came to 32.5 µg/mL (≈ 126 µM).
Regarding `O=C(O)c1nccnc1C(=O)Nc1ccccc1-c1ccccc1`, the solubility (kinetic) was above 47.9 µg/mL.
For `O=S(=O)(NCc1cccnc1)c1ccc(Cl)c2ccccc12` the value was above 49.9 µg/mL; for `CNc1snc(C)c1C(=O)OCC(=O)N(C)c1ccccc1`, above 47.9 µg/mL.
The same measure for `COc1cccc(N2CC(C(=O)Nc3ccc(F)cc3)CC2=O)c1` (centres undefined): 20.3 µg/mL (≈ 61.8 µM); for `CNC(=O)c1ccccc1NC(=O)C1CC(=O)N(C(C)C)C1` (centres undefined): 44.7 µg/mL (≈ 147 µM).
Consider `CC(C)Cc1ccc(C(C)C(=O)Nc2ncccn2)cc1` (centres undefined), for which the solubility (kinetic) is 35.9 µg/mL (≈ 127 µM). The solubility kinetic values of the last two compounds are within 1.5-fold of each other.
For `Cc1noc(C)c1NC(=O)NC(c1ccccc1)c1ccccc1` the value was 10.2 µg/mL (≈ 31.7 µM); for `NS(=O)(=O)c1cccc(NC(=O)CSc2nnc(C3CC3)n2-c2ccccc2)c1`, above 64.4 µg/mL.
The same measure for `COc1ccc(S(=O)(=O)N2CC(=O)Nc3ccccc32)cc1F`: above 50.5 µg/mL; for `CC(C)[C@H](N[C@@H](C)c1ccccc1)c1c(O)ccc2ccccc12`: 2.2 µg/mL (≈ 6.89 µM).
The same measure for `O=C(Nc1cccc2c1CCCC2)c1cccc(F)c1`: below 0.6 µg/mL; for `COc1cc(S(=O)(=O)N2CCOCC2)ccc1NC(=O)COC(=O)/C=C/c1cc(OC)c(OC)c(OC)c1`: 4.6 µg/mL (≈ 8.35 µM); for `COc1ccc(NC(=O)c2ccc(F)c(F)c2)c2ccccc12`: below 0.7 µg/mL.
As to `CCn1c(=O)c(C(=O)Nc2ccc(C)cc2C)c(O)c2ccccc21`, the solubility (kinetic) is below 0.4 µg/mL.
The same measure for `O=C(Nc1cccc(C(=O)Nc2ccc(F)cc2F)c1)c1ccccc1`: 0.4 µg/mL (≈ 1.14 µM); for `S=C(NCc1ccccc1)Nc1cccc2cnccc12`: above 44 µg/mL.
The same measure for `CCc1ccc(CN2CCC(CO)(CC3CCCCO3)CC2)o1` (centres undefined): 38.1 µg/mL (≈ 119 µM); for `COc1cccc(NC(=O)Nc2ccc3c(c2)CCC3)c1`: 0.3 µg/mL (≈ 1.06 µM).
For `CC1(C)Oc2ccc3ccc(=O)oc3c2C(/C=N/O)=C1Cl` the value was 12.5 µg/mL (≈ 40.9 µM).
Regarding `CC1(C)CC(C(N)=S)CCO1` (centres undefined), the solubility (kinetic) turned out to be 23.5 µg/mL (≈ 136 µM). Against the preceding compound, the solubility kinetic is about 1.9-fold higher.
For `O=S(=O)(NC1C2CC3CC(C2)CC1C3)c1ccccc1` (centres undefined) the value was 23.4 µg/mL (≈ 80.3 µM); for `Cn1cccc1C1C(C#N)=C(N)OC2=C1C(=O)CC(C)(C)C2` (centres undefined), 43.2 µg/mL (≈ 145 µM).
Take `O=C(NCCCNC(=O)c1cnccn1)c1cccc(F)c1`: the solubility (kinetic) came out at 40.2 µg/mL (≈ 133 µM).
The same measure for `Cl.OC(CNCc1ccncc1)c1ccccc1` (centres undefined): above 39.7 µg/mL.
The same measure for `Cc1ccc(C)c(CN2CCSCC2)c1`: 2.1 µg/mL (≈ 9.49 µM); for `COc1ccc(CNC(=O)COC(=O)c2ccc(F)c(S(=O)(=O)N3CCOCC3)c2)cc1`: 68 µg/mL (≈ 146 µM).
The same measure for `CCOC(=O)Cc1csc(NC(=O)CCSc2ccccc2)n1`: 38.5 µg/mL (≈ 110 µM).
`Cc1cc(=O)[nH]c(SCC(=O)N2CCN(C(=O)c3ccco3)CC2)n1` returned a kinetic solubility above 54.4 µg/mL.
The same measure for `COc1ccc2[nH]c(C(=O)NCCN3CCOCC3)cc2c1`: 31.6 µg/mL (≈ 104 µM).
The same measure for `O=C1CCCC2=C1C(c1ccccc1)CC(=O)N2c1ccc(F)cc1F` (centres undefined): 45.8 µg/mL (≈ 130 µM); for `O=C(Oc1ccc(C(=S)N2CCOCC2)cc1)c1ccc(F)cc1`: 2.8 µg/mL (≈ 8.11 µM).
For `CC(=O)N1CCN(C(=O)c2ccc(Oc3ccccc3)cc2)CC1` the value was 46.6 µg/mL (≈ 144 µM); for `COc1ccc(CN(C)Cc2c(O)ccc3ccccc23)cc1`, 16.7 µg/mL (≈ 54.3 µM).
Regarding `O=C(CNc1cc(S(=O)(=O)N2CCOCC2)ccc1N1CCOCC1)Nc1cccc(C(F)(F)F)c1`, the kinetic solubility turned out to be 2.5 µg/mL (≈ 4.73 µM).
The same measure for `Cc1ccc2[nH]c(C)c(CC(=O)NCc3ccccc3)c2c1`: above 43.9 µg/mL; for `CCOC(=O)C(=CNc1ccc(Cl)cn1)C(=O)OCC`: 1.2 µg/mL (≈ 4.02 µM).
`C=CCc1cc(/C=C2/NC(=O)N(CC(=O)OC)C2=O)cc(OC)c1O` displayed a solubility (kinetic) of 11.9 µg/mL (≈ 34.4 µM).
The same measure for `O=C(CC(Nc1ccc(Cl)cc1Cl)C(=O)O)c1ccccc1` (centres undefined): 50 µg/mL (≈ 148 µM).
The same measure for `N#Cc1cccc(CSc2ncnc(N)n2)c1`: above 36.5 µg/mL; for `Cn1cccc1C(=O)NC(=O)COC(=O)c1ccc(S(C)(=O)=O)c([N+](=O)[O-])c1`: 14.7 µg/mL (≈ 35.9 µM); for `O=C1/C(=C\c2ccc(Cl)cc2Cl)N2CCC1CC2`: 8.9 µg/mL (≈ 31.5 µM).
`CCN(CC)C(=O)CSc1ncccc1-c1nc2ccccc2[nH]1`: the solubility (kinetic) came out at 17.6 µg/mL (≈ 51.7 µM).
The same measure for `O=C(CSc1ccccn1)Nc1nonc1[N+](=O)[O-]`: above 42.2 µg/mL.
For `CCC(=O)Nc1c(-c2ccccc2)c(=O)c2ccccc2n1C` the value was 44.9 µg/mL (≈ 147 µM).
For `COc1ccc2cc(Br)ccc2c1CC(=O)N(C)C` the value was 21.1 µg/mL (≈ 65.5 µM); for `O=C(CCCC(=O)NC1CCCCC1)Nc1ccc([N+](=O)[O-])cc1`, 12 µg/mL (≈ 36 µM); for `O=C(Cc1ccccc1)c1c[nH]c(C(=O)NCCCn2ccnc2)c1`, above 50.5 µg/mL.
The compound `CC(=O)c1cc(N2CCOCC2)ccc1[N+](=O)[O-]` showed a kinetic solubility above 37.5 µg/mL.
The same measure for `O=C(O)c1ccc(CNC(=O)c2ccc(C(F)(F)F)cc2)cc1`: above 48.5 µg/mL.
The same measure for `O=C1Nc2ccc(Br)cc2C1(O)c1ccc(F)cc1` (centres undefined): above 48.3 µg/mL; for `COc1ccnc2c1c(=O)n(Cc1cccc(Cl)c1)c(=O)n2C`: 9.8 µg/mL (≈ 29.5 µM); for `O=C(O)C1CC1C(=O)Nc1nc2c(Cl)cccc2s1` (centres undefined): above 44.5 µg/mL.
Turning to `COc1ccccc1C1NC(=O)NC(C)=C1C(=O)OC1CCC(C)CC1` (centres undefined), the kinetic solubility is below 0.4 µg/mL.
For `O=C(Nc1ccccc1N1CCOCC1)c1ccncc1` the value was above 42.5 µg/mL; for `O=C(CSCc1ccccc1)NCCc1ccc(F)cc1`, 41.5 µg/mL (≈ 137 µM).
`Cc1cc(NC(=O)NC(C(F)(F)F)C(F)(F)F)no1` came in with a solubility (kinetic) of 22.7 µg/mL (≈ 78 µM).
As for `COc1ccc(OC)c(/C=C/C(=O)NC2=NCCS2)c1`, the solubility (kinetic) is 4 µg/mL (≈ 13.7 µM).
In turn, `COc1ccc(-c2c(C#N)c(N)nc3c2CCC3)cc1` had a solubility (kinetic) of 0.3 µg/mL (≈ 1.13 µM).
For `N#Cc1ccccc1NC(=O)CN1CCN(c2ccccn2)CC1` the value was above 48.2 µg/mL; for `Cc1ccc(S(=O)(=O)N2CC(O)CC2C(=O)O)cc1` (centres undefined), above 42.8 µg/mL.
The same measure for `CCOC(=O)c1ccc2[nH]c3c(c2c1)CCCC3NC=O` (centres undefined): above 42.9 µg/mL.
The same measure for `CC1CN(C(C)C(=O)NC(c2ccccc2)c2ccccc2)CC(C)O1` (centres undefined): above 52.9 µg/mL.
Regarding `Cc1nnc(NC(=O)C2CCCC2)s1`, the kinetic solubility was above 31.7 µg/mL.
In turn, `C=CCNC(=O)COc1ccc(Oc2ccccc2)cc1` registered a kinetic solubility above 42.5 µg/mL.
As for `COc1ccc(Br)cc1/C=C/C(=O)NCC(=O)O`, the solubility (kinetic) was above 47.1 µg/mL.
As for `O=C1OCC2=C1C(c1ccc(F)cc1)CC(=O)N2c1ccc(F)cc1` (centres undefined), the solubility (kinetic) was above 51.2 µg/mL.
For `O=C(O)Cn1c(-c2ccccc2)cc2ccccc21` the value was 25.3 µg/mL (≈ 101 µM).
For `COc1ccc(C(O)c2ncc(C(F)(F)F)cc2Cl)cc1` (centres undefined) the value was above 47.7 µg/mL.
As for `Cc1nc2ccccc2c(=O)n1NC(=O)c1ccccc1F`, the kinetic solubility was above 44.6 µg/mL.
The same measure for `O=C1NC(=Nc2cccc(O)c2)S/C1=C\c1cccnc1`: 1.2 µg/mL (≈ 4.04 µM).
The same measure for `CC(C)c1ccc(C(O)Cc2nc3ccccc3n2C)cc1` (centres undefined): 1.8 µg/mL (≈ 6.11 µM); for `CCN(CC(=O)NC(=O)NC1CCCCC1)Cc1ccccc1`: 47 µg/mL (≈ 148 µM); for `O=C(c1cc(-c2ccc(O)cc2)on1)N1CCCC1`: above 38.7 µg/mL.
For the compound `CC(NCC#Cc1ccccc1)C(O)c1ccccc1.Cl` (centres undefined), the kinetic solubility was determined as 44.8 µg/mL.
For `CC(NC(=O)COC(=O)c1cc(Cl)nc(Cl)c1)c1ccccc1` (centres undefined) the value was above 53 µg/mL; for `S=C(NCC1CCCO1)NC1CC1` (centres undefined), above 30 µg/mL.
`COc1ccc2[nH]c3c(=O)n(CCN4CCOCC4)cnc3c2c1` showed a solubility (kinetic) above 49.3 µg/mL.
For `C#CCOc1ccccc1/C=C1/C(=O)ON=C1C` the value was 34.9 µg/mL (≈ 145 µM); for `O=C(O)c1ccc(Nc2cccc(F)c2)c([N+](=O)[O-])c1`, above 41.4 µg/mL.
On to `COc1ccc2oc(=N)c(C(=O)NCc3ccccc3)cc2c1`, for which the solubility (kinetic) was found to be 3.1 µg/mL (≈ 10.1 µM).
The same measure for `O=C(CCNC(=O)c1ccccc1)NCC1CCCCC1`: above 43.3 µg/mL.
For `CCOC(=O)C1(C)NC(c2ccco2)C2C(=O)N(C)C(=O)C21` (centres undefined) the value was above 45.9 µg/mL; for `O=C(COC(=O)c1cccc(OC(F)F)c1)NCC1CCCO1` (centres undefined), above 49.4 µg/mL.
For `c1csc(-c2noc(CN3CCN4CCCC4C3)n2)c1` (centres undefined), the solubility (kinetic) was above 43.6 µg/mL.
The same measure for `Cc1cc(NC(=O)c2cccs2)ncc1NC(=O)C(C)C`: above 45.5 µg/mL; for `CCNC(=O)Cc1ccc(S(=O)(=O)N2CCOCC2)s1`: above 47.8 µg/mL.
The same measure for `NCC(=O)CCC(=O)O`: 18.6 µg/mL (≈ 142 µM).
For `Oc1ccc(NCc2ccc(OCc3ccccc3)cc2)cc1` the value was 9.7 µg/mL (≈ 31.8 µM); for `Cc1oc(S(=O)(=O)N(C)C)cc1C(=O)Nc1ccc(Cl)cc1`, below 0.4 µg/mL.
In turn, `O=[N+]([O-])c1cccnc1SCc1c(F)cccc1Cl` displayed a kinetic solubility below 0.3 µg/mL.
As for `O=S(=O)(NC1CC1)c1ccc(Cl)cc1`, the solubility (kinetic) is above 34.8 µg/mL.
The same measure for `Cc1ccc(Cl)c(NC(=O)CN2CCN(C=O)CC2)c1`: 36.6 µg/mL (≈ 124 µM); for `CC(C)[C@H](NC(=O)c1ccccc1Cl)C(=O)Nc1ccc(S(=O)(=O)Nc2nccs2)cc1`: 14.6 µg/mL (≈ 29.6 µM).
The same measure for `Cc1ccc(CNC(=O)C2CCC(=O)N(C3CC3)C2)cc1` (centres undefined): above 43 µg/mL; for `O=C(CSc1nc2ccccc2o1)Nc1nccs1`: 2 µg/mL (≈ 6.86 µM).
Compound `CCOC1C(=O)NC(=O)N1Cc1ccccc1` (centres undefined) had a kinetic solubility of 29.8 µg/mL (≈ 127 µM).
The same measure for `Cc1cccc(C(=O)NCC(=O)N(C)Cc2nc3ccccc3c(=O)[nH]2)c1`: above 54.7 µg/mL.
For `CN(C)c1cccc(C(=O)OCC(=O)NC2CCCC2)c1` the value was 36.6 µg/mL (≈ 126 µM).
The same measure for `O=C1Nc2ccccc2S/C1=C/c1cccs1`: below 0.6 µg/mL; for `CC(C)COc1ccc(C(=O)OCC(=O)NCc2cccs2)cc1`: 1.1 µg/mL (≈ 3.17 µM); for `O=C(Nc1ccc(Cl)cc1)Nc1ccc(Oc2cccnc2)nc1`: 0.7 µg/mL (≈ 2.05 µM).
